Measurements published in patent US20240390490A1, “PHARMACEUTICAL COMPOSITIONS FOR THE TREATMENT OF CANCERS” (Rutgers, The State University of New Jersey, priority 2021, published 2024).

Legend:
[1] = system: MDA-MB-468 and T47D cells; assay: Cell cycle analysis (PI staining); format: cell-based, human; conditions: 100 μM
Method: Cell cycle analysis of breast cancer cells was carried out using propidium iodide (PI) staining protocol according to the manufacturer's instructions (Nexcelom Bioscience LLC, Lawrence, MA). […] Then, cells were harvested by trypsinization, centrifuged at 2000 rpm for 5 minutes, washed with PBS (pH 7.4), and fixed in ice cold 100% ethanol for 15 minutes. The cells were spun down and resuspended in 150 μl of PI-staining solution provided with the Cellometer PI Cell Cycle Kit. The PI-stained cells were then subjected to analysis in the Cellometer Vision instrument (Nexcelom Bioscience LLC) and the data was captured on Cellometer Vision CBA software (Nexcelom Bioscience LLC) and analyzed by FCS Express 4 software (Molecule Devices, Corp., Sunnyvale, CA). Differences in fluorescence intensity were used to determine the percentage of cells in each phase of the cell cycle and represented as histograms for control and drug-treated samples.

YAC-1 target cells = assay: NK cell cytotoxicity of PBMC- and spleen-derived NK cells (calcein AM); format: in vivo, rat
Method: After the end of the drug treatment period, the spleen tissues from control and drug-treated rats were processed, and RBCs and granulocytes were removed from splenocyte suspensions by density centrifugation using Histopaque 1083 (Sigma-Aldrich) as previously described (8). Splenocytes (˜10×10^7 cells per spleen) were extracted from the middle layer, washed with RPMI-1640 (Gibco), and resuspended in buffer (PBS, 0.5% BSA). Splenocytes were incubated with primary Abs conjugated to FITC (BD Biosciences), anti-CD6 (OX52; T cells), anti-CD45RA (OX-33; mature B cells), and anti-RT1B (OX-6; dendritic cells and macrophages), followed by secondary incubation with anti-FITC microbeads, according to the manufacturer's instructions (Miltenyi Biotec). NK cells were then enriched by magnetic separation (negative selection) using an AutoMACS Magnetic Separator (Miltenyi Biotec). The enriched fraction consistently yielded ˜5×10^6 cells per spleen with a purity of ˜80-90%. […] The pelleted cells (PBMC) were counted in a hemocytometer and assayed for viability by trypan blue exclusion. […]
The cytotoxicity of enriched NK cells from PBMC and the spleen against NK-sensitive YAC-1 (ATCC) target cells was determined by calcein AM assays as previously described (8). […] All assays were analyzed and percent cytotoxicity for each sample was calculated as previously described (8).

NK-92 MI cells = assay: Cytotoxic protein levels in human NK cells (Western blot); format: cell-based; conditions: 50 μM, 12 hours
Method: The human NK cell line NK-92 MI (ATCC) was maintained in alpha minimum essential medium (MEM) without ribonucleosides and deoxyribonucleosides (Gibco) supplemented with final concentrations of 12-5% FBS, 12-5% horse serum (ATCC), 2 mM L-glutamine (Gibco), 1.5 g/L sodium bicarbonate (Gibco), 0.2 mM inositol (Sigma), 0.1 mM 2-mercaptoethanol (Gibco), and 0.02 mM folic acid (Sigma).
For protein analyses, tumor tissues from in vivo experiments, enriched NK cells from the spleen, and NK-92 MI cancer cell co-incubated samples were lysed with a buffer containing protease and phosphatase inhibitors (25 mM Tris-HCl, pH 7.4; 150 mM NaCl; 1% Nonidet P-40; 1 mM EDTA; and 5% glycerol with Pierce Halt Protease Inhibitor). Protein (50 mg) from total lysate was loaded and separated on a 4-20% SDS-PAGE and transferred overnight to polyvinylidene difluoride membranes. Membranes were incubated with primary Ab for 12 hours at 4° C. in blocking buffer, 5% w/v nonfat dry milk in TBS, and 0.1% Tween 20. The following primary antibodies were purchased from Santa Cruz Biotechnology (Santa Cruz, CA): anti-perforin rabbit polyclonal (1:250), anti-granzyme B mouse monoclonal (1:200), anti-IFN-γ mouse monoclonal (1:250), anti-Snail (1:200), anti-Slug (1:200), and anti-Twist. Anti-E-cadherin (1:250), anti-N-cadherin (1:250), and anti-NKG2D goat polyclonal (1:500) were all from Abcam (Cambridge, MA). […]

CT26 colon cancer cells = assay: CT26 colon cancer subcutaneous tumors in BALB/c mice; format: in vivo, mouse; conditions: male and female mice
Method: Balb/c mice (both male and female) were obtained from Taconic Biosciences and injected with 1×10^6 cells of CT26. Once palpable tumors develop (˜50 mm3), animals were allocated into 6 groups (3 mice/group). […] Mice were monitored every day. Tumor volume and mice weight were measured daily. Animals were euthanized when the tumor reached 2,000 mm^3. […] For tumor growth study, Mouse CT26 colon cancer cells were grown until about 90% confluence just 1 day before injection. […] Three dimensions of tumor were measured using electronic calipers, and tumor volumes were calculated by the formula as, L×W^2/2. The mean±SE of tumor volume was calculated weekly for each experimental group and the data are expressed as mean absolute tumor volume.

| Compound | number of cells in the G0/G1 cycle [1] | NK cell cytolytic activity (YAC-1 target cells) | granzyme B levels (NK-92 MI cells) | perforin levels (NK-92 MI cells) | tumor volume (CT26 colon cancer cells) |
| --- | --- | --- | --- | --- | --- |
| O=C1CC[C@@]2(O)[C@H]3Cc4ccc(O)c5c4[C@@]2(CCN3CC2CC2)[C@H]1O5 [NTX, 17-(cyclopropylmethyl)-4,5α-epoxy-3,14-dihydroxymorphinan-6-one] | moderately but not significantly reduced |  |  |  |  |
| CC(C)NCC(O)COc1cccc2ccccc12 (centres unmarked) [PRO, propranolol] |  | elevated | moderately elevated | moderately elevated | decreasing tumor volume |
